Where two headings read alike, the source gives them in different places.
Legend:
Type in all cases: in vivo
[1] = system: barnyardgrass (Echinochloa crus-galli); assay: Test A pre-/postemergence greenhouse herbicide test, visual injury rating 0-100; conditions: for pest or weed control at 500 g/ha: 500 g ai/ha
Procedure, shortened: (§1)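 Formulated in non-phytotoxic solvent with surfactant, compounds were applied pre- and postemergence simultaneously. Soil: loam–sand blend. Visual injury, 0 = no effect to 100 = complete control, ~10 days.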

[2] = system: corn (Zea mays); assay: as above; conditions: for plant injury at 500 g/ha: 500 g ai/ha
Procedure, shortened: as §1

[3] = system: giant foxtail (Setaria faberii); assay: as above; conditions: for pest or weed control at 500 g/ha: 500 g ai/ha
Procedure, shortened: as §1

[4] = system: large (Lg) crabgrass (Digitaria sanguinalis); assay: as above; conditions: for pest or weed control at 500 g/ha: 500 g ai/ha
Procedure, shortened: as §1

[5] = system: morningglory (Ipomoea spp.); assay: as above; conditions: for pest or weed control at 500 g/ha: 500 g ai/ha
Procedure, shortened: as §1

[6] = system: pigweed (Amaranthus retroflexus); assay: as above; conditions: for pest or weed control at 500 g/ha: 500 g ai/ha
Procedure, shortened: as §1

[7] = system: velvetleaf (Abutilon theophrasti); assay: as above; conditions: for pest or weed control at 500 g/ha: 500 g ai/ha
Procedure, shortened: as §1

[8] = system: wheat (Triticum aestivum); assay: as above; conditions: for plant injury at 500 g/ha: 500 g ai/ha
Procedure, shortened: as §1

[9] = system: galium (catchweed bedstraw, Galium aparine); assay: Test C pre-/postemergence greenhouse test, plant response rating 0-100; conditions: Galium; for pest or weed control at 62 g/ha: 62 g ai/ha; for pest or weed control at 125 g/ha: 125 g ai/ha; for pest or weed control at 250 g/ha: 250 g ai/ha
Procedure, shortened: (§2)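 Pre-emergence soil and post-emergence foliar sprays were applied simultaneously to seeded loam–sand pots and to 1–4-leaf plants in peat medium; greenhouse holding lasted 13–15 days, then plants were scored visually from 0 (no effect) to 100 (complete control).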

[10] = system: morningglory (Ipomoea coccinea); assay: as above; conditions: Ipomoea; for pest or weed control at 62 g/ha: 62 g ai/ha; for pest or weed control at 125 g/ha: 125 g ai/ha; for pest or weed control at 250 g/ha: 250 g ai/ha
Procedure, shortened: as §2

[11] = system: oilseed rape (Brassica napus); assay: as above
Procedure, shortened: as §2

[12] = system: chickweed (common chickweed, Stellaria media); assay: Test C postemergence greenhouse test, plant response rating 0-100; conditions: Stellaria media, post-emergence
Procedure, shortened: (§3)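 Plants rated visually 0 (no effect) to 100 (complete control) against untreated controls after 13 to 15 days in the greenhouse, dash indicating no result. Treatment was a postemergence application of formulated chemicals at the 1- to 4-leaf stage (2 to 18 cm), in pots of peat-vermiculite medium.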

[13] = system: kochia (Kochia scoparia); assay: as above; conditions: Bassia scoparia, post-emergence
Procedure, shortened: as §3

[14] = system: wild oat (Avena fatua); assay: as above; conditions: Avena fatua, post-emergence
Procedure, shortened: as §3

[15] = post-emergence, Postemergence, read-out: Plant response rating (0 to 100), Galium
[16] = post-emergence, Postemergence, scale 0 to 100
[17] = post-emergence, Postemergence, 500 g ai/ha, scale 0 to 100
[18] = pre-emergence, Preemergence, read-out: Plant response rating, Galium
[19] = post-emergence, Postemergence, read-out: Plant response rating (0 to 100), Morningglory
[20] = pre-emergence, Preemergence, read-out: Plant response rating, Morningglory

O=C(c1ccccc1)c1cn(CO)nc1-c1cc(Cl)cc(Cl)c1 [Compound 15, [3-(3,5-dichlorophenyl)-1-(hydroxymethyl)-1H-pyrazol-4-yl]phenylmethanone]
pest or weed control at 125 g/ha ([1]; Echinochloa crus-galli, post-emergence, 240 h, Postemergence, 125 g ai/ha, read-out: Plant response rating (0 to 100 scale), Barnyardgrass): 0%
pest or weed control at 500 g/ha ([1]; Echinochloa crus-galli, post-emergence, 240 h, Postemergence, read-out: Plant response rating (0 to 100 scale), Barnyardgrass): 0%
pest or weed control at 500 g/ha ([1]; Echinochloa crus-galli, pre-emergence, 240 h, Preemergence, read-out: Plant response rating (0 to 100 scale), Barnyardgrass): 0%
Barnyardgrass plant response rating (0 = no effect, 100 = complete control) ([1]; Preemergence, 125 g ai/ha): 0
Corn plant response rating (0 = no effect, 100 = complete control) ([2]; Preemergence, 125 g ai/ha): 0
plant injury at 125 g/ha ([2]; Zea mays, post-emergence, 240 h, Postemergence, 125 g ai/ha, read-out: Plant response rating (0 to 100 scale), Corn): 0%
plant injury at 500 g/ha ([2]; Zea mays, post-emergence, 240 h, Postemergence, read-out: Plant response rating (0 to 100 scale), Corn): 0%
plant injury at 500 g/ha ([2]; Zea mays, pre-emergence, 240 h, Preemergence, read-out: Plant response rating (0 to 100 scale), Corn): 0%
Foxtail, Giant plant response rating (0 = no effect, 100 = complete control) ([3]; Preemergence, 125 g ai/ha): 0
pest or weed control at 125 g/ha ([3]; Setaria faberi, post-emergence, 240 h, Postemergence, 125 g ai/ha, read-out: Plant response rating (0 to 100 scale), Foxtail, Giant): 0%
pest or weed control at 500 g/ha ([3]; Setaria faberi, post-emergence, 240 h, Postemergence, read-out: Plant response rating (0 to 100 scale), Foxtail, Giant): 0%
pest or weed control at 500 g/ha ([3]; Setaria faberi, pre-emergence, 240 h, Preemergence, read-out: Plant response rating (0 to 100 scale), Foxtail, Giant): 0%
pest or weed control at 125 g/ha ([4]; Digitaria sanguinalis, post-emergence, 240 h, Postemergence, 125 g ai/ha, read-out: Plant response rating (0 to 100 scale), Crabgrass, Large): 0%
pest or weed control at 500 g/ha ([4]; Digitaria sanguinalis, post-emergence, 240 h, Postemergence, read-out: Plant response rating (0 to 100 scale), Crabgrass, Large): 0%
pest or weed control at 500 g/ha ([4]; Digitaria sanguinalis, pre-emergence, 240 h, Preemergence, read-out: Plant response rating (0 to 100 scale), Crabgrass, Large): 0%
Crabgrass, Large plant response rating (0 = no effect, 100 = complete control) ([4]; Preemergence, 125 g ai/ha): 0
pest or weed control at 125 g/ha ([5]; Ipomoea, post-emergence, 240 h, Postemergence, 125 g ai/ha, read-out: Plant response rating (0 to 100 scale), Morningglory): 0%
pest or weed control at 500 g/ha ([5]; Ipomoea, post-emergence, 240 h, Postemergence, read-out: Plant response rating (0 to 100 scale), Morningglory): 0%
pest or weed control at 500 g/ha ([5]; Ipomoea, pre-emergence, 240 h, Preemergence, read-out: Plant response rating (0 to 100 scale), Morningglory): 0%
Morningglory plant response rating (0 = no effect, 100 = complete control) ([5]; Preemergence, 125 g ai/ha): 0
pest or weed control at 125 g/ha ([6]; Amaranthus retroflexus, post-emergence, 240 h, Postemergence, 125 g ai/ha, read-out: Plant response rating (0 to 100 scale), Pigweed): 80%
pest or weed control at 500 g/ha ([6]; Amaranthus retroflexus, post-emergence, 240 h, Postemergence, read-out: Plant response rating (0 to 100 scale), Pigweed): 90%
pest or weed control at 500 g/ha ([6]; Amaranthus retroflexus, pre-emergence, 240 h, Preemergence, read-out: Plant response rating (0 to 100 scale), Pigweed): 100%
Pigweed plant response rating (0 = no effect, 100 = complete control) ([6]; Preemergence, 125 g ai/ha): 20
pest or weed control at 125 g/ha ([7]; Abutilon theophrasti, post-emergence, 240 h, Postemergence, 125 g ai/ha, read-out: Plant response rating (0 to 100 scale), Velvetleaf): 80%
pest or weed control at 500 g/ha ([7]; Abutilon theophrasti, post-emergence, 240 h, Postemergence, read-out: Plant response rating (0 to 100 scale), Velvetleaf): 90%
pest or weed control at 500 g/ha ([7]; Abutilon theophrasti, pre-emergence, 240 h, Preemergence, read-out: Plant response rating (0 to 100 scale), Velvetleaf): 90%
Velvetleaf plant response rating (0 = no effect, 100 = complete control) ([7]; Preemergence, 125 g ai/ha): 40
Wheat plant response rating (0 = no effect, 100 = complete control) ([8]; Preemergence, 125 g ai/ha): 0
plant injury at 125 g/ha ([8]; Triticum aestivum, post-emergence, 240 h, Postemergence, 125 g ai/ha, read-out: Plant response rating (0 to 100 scale), Wheat): 0%
plant injury at 500 g/ha ([8]; Triticum aestivum, post-emergence, 240 h, Postemergence, read-out: Plant response rating (0 to 100 scale), Wheat): 0%
plant injury at 500 g/ha ([8]; Triticum aestivum, pre-emergence, 240 h, Preemergence, read-out: Plant response rating (0 to 100 scale), Wheat): 0%
pest or weed control at 62 g/ha [9, 15]: 0%
pest or weed control at 125 g/ha [9, 15]: 0%
pest or weed control at 250 g/ha [9, 16]: 10%
pest or weed control at 500 g/ha [9, 17]: 45%
pest or weed control at 31 g/ha ([9]; pre-emergence, Preemergence, 31 g ai/ha, read-out: Plant response rating, Galium): 0%
pest or weed control at 62 g/ha [9, 18]: 0%
pest or weed control at 125 g/ha [9, 18]: 0%
pest or weed control at 250 g/ha ([9]; pre-emergence, Preemergence): 0%
pest or weed control at 62 g/ha [10, 19]: 0%
pest or weed control at 125 g/ha [10, 19]: 0%
pest or weed control at 250 g/ha [10, 16]: 10%
pest or weed control at 500 g/ha [10, 17]: 20%
pest or weed control at 31 g/ha ([10]; pre-emergence, Preemergence, 31 g ai/ha): 0%
pest or weed control at 62 g/ha [10, 20]: 0%
pest or weed control at 125 g/ha [10, 20]: 0%
pest or weed control at 250 g/ha ([10]; pre-emergence, Preemergence): 0%
Plant response rating (0 to 100), Oilseed Rape ([11]; Postemergence, 62 g ai/ha): 60
Plant response rating (0 to 100), Oilseed Rape ([11]; Postemergence, 125 g ai/ha): 90
Plant response rating, Oilseed Rape ([11]; Postemergence, 250 g ai/ha, scale 0 to 100): 90
Plant response rating, Oilseed Rape ([11]; Postemergence, 500 g ai/ha, scale 0 to 100): 90
Plant response rating, Oilseed Rape ([11]; Preemergence, 31 g ai/ha): 0
Plant response rating, Oilseed Rape ([11]; Preemergence, 62 g ai/ha): 50
Plant response rating, Oilseed Rape ([11]; Preemergence, 125 g ai/ha): 50
Plant response rating, Oilseed Rape ([11]; Preemergence, 250 g ai/ha): 80
pest or weed control at 62 g/ha ([12]; 62 g ai/ha): 95%
pest or weed control at 125 g/ha ([12]; 125 g ai/ha): 95%
pest or weed control at 250 g/ha ([12]; 250 g ai/ha, scale 0 to 100): 100%
pest or weed control at 500 g/ha ([12]; 500 g ai/ha, scale 0 to 100): 100%
pest or weed control at 62 g/ha ([13]; 62 g ai/ha): 70%
pest or weed control at 125 g/ha ([13]; 125 g ai/ha): 85%
pest or weed control at 250 g/ha ([13]; 250 g ai/ha, scale 0 to 100): 85%
pest or weed control at 500 g/ha ([13]; 500 g ai/ha, scale 0 to 100): 90%
pest or weed control at 62 g/ha ([14]; 62 g ai/ha): 0%
pest or weed control at 125 g/ha ([14]; 125 g ai/ha): 0%
pest or weed control at 250 g/ha ([14]; 250 g ai/ha, scale 0 to 100): 0%
pest or weed control at 500 g/ha ([14]; 500 g ai/ha, scale 0 to 100): 0%

Reference: US10167262B2, “Herbicidal substituted 3-arylpyrazoles” (FMC CORPORATION, priority 2014, dated 2019)
